Read-outs that look alike come from different tables or passages of the source.
Experiments:
CCR6 = biological target: T1, CCR6 (Homo sapiens, UniProt P51684); assay: CCR6+ T Cell Chemotaxis Assay; assay type: cell-based; settings: for T Cell Chemotaxis Selectivity: Table 13, T cell chemotaxis compared to neutrophil chemotaxis, NS = not selective for T cell chemotaxis compared to neutrophil chemotaxis
T1 construct: Human CD4+CCR6+CXCR3-T cells were isolated from leukopak from healthy donors; endogenous in cells
T1 sequence (P51684 1-374): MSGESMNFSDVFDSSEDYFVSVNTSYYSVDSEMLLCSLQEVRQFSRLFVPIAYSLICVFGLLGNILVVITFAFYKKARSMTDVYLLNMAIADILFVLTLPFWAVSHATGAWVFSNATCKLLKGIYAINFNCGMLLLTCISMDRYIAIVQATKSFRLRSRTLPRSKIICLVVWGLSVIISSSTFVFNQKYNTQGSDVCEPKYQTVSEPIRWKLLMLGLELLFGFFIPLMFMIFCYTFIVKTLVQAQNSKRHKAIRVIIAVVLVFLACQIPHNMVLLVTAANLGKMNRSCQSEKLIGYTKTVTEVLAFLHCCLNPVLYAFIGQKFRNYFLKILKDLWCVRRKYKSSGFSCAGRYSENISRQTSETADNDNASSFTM
From the text: Human CD4+CCR6+CXCR3-T cells were isolated from leukopak from healthy donors using EasySep™ Human Th17 Cell Enrichment Kit. […] Day 4 post activation, Dynabeads were removed from the culture. The activated T cells were maintained at 1-2×10^6 cells/mL for 15 days by feeding fresh growth media when needed.
For IC50 determination, the top and bottom of the chemotaxis chamber contained the same concentration of compound. DMSO was kept constant at 0.1% (v/v) in all wells. The final concentration of CCL20 (Peprotech 300-29A) in the bottom chamber is 0.5 nM. The fully assembled chemotaxis plate was placed in a cell culture incubator at 37° C., 5% CO2 for 1 h. After incubation, the top filter was removed, followed by a quick freeze of the bottom chamber at −80° C. for 1 h. The migrated cells in the bottom chamber were stained with CyQUANT dye (Life Technologies, C7026) for cell number determination.
IC50 values for compounds of the present invention (Table 11) were determined by the non-linear regression analysis of dose response curves.

CXCR2 = biological target: T2, CXCR2 (Homo sapiens, UniProt P25025); assay: Human Neutrophil Chemotaxis Assay; assay type: cell-based; set-up: Human neutrophils were purified from freshly drawn human whole blood; endogenous in cells; host or cells: primary human neutrophils from fresh whole blood
T2 sequence (P25025 1-360): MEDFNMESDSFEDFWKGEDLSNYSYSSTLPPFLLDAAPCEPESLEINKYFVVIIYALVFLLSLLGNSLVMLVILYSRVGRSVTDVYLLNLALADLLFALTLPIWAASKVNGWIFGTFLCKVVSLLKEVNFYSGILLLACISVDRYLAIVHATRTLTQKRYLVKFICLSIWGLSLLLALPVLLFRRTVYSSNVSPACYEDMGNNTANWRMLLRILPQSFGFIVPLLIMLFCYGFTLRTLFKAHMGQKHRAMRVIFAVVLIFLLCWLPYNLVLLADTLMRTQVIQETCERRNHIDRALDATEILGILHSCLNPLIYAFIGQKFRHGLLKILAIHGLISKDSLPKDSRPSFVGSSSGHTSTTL
Description: After 30 min, the labeled neutrophils were washed twice in chemotaxis buffer, resuspended as before and used immediately. For the assay, test compounds were tested in a dose-response format to determine IC50. Labeled neutrophils (50 μL) were pre-incubated with diluted test compound (50 μL) for 30 min in a 96-well plate (Greiner). Next, 100 μL of diluted compound was mixed with 100 μL of GROα (Peprotech #300-11, 2 nM) in the bottom portion of the chemotaxis chamber. The top portion (insert) of the chemotaxis system containing the FluoroBlok porous membrane was then assembled together. 50 μL of the pre-incubated neutrophils were added to the FluoroBlok insert (top portion) and chemotaxis measured by the neutrophils ability to migrate through the membrane towards the specific CXCR2 ligand, GROα.
IC50 values for compounds of the present invention (Table 12) were determined by the non-linear regression analysis of dose response curves.

[1] = Table 11, human CD4+CCR6+CXCR3- T cells, CCL20 0.5 nM in bottom chamber, 1 h at 37° C., read-out: IC50
[2] = Table 12, human neutrophils migrating towards the CXCR2 ligand GROα, read-out: IC50

| Compound | IC50 (CCR6; [1]) [nM] | T Cell Chemotaxis Selectivity (CCR6) | IC50 (CXCR2; [2]) [nM] | also measured |
| --- | --- | --- | --- | --- |
| Cc1cn(C)nc1[C@H](Nc1c(Nc2ccnc(C(=O)N(C)C)c2O)c(=O)c1=O)C1(C)CC2(CC2)C1 (single isomer, unassigned) [Example 17] | 5.9 | 535 | 3160 | – |
| Cc1nc([C@H](Nc2c(Nc3ccnc(C(=O)N(C)C)c3O)c(=O)c2=O)C2(C)CCCC2)c(C)o1 (single isomer, unassigned) [Example 34] | 24 | 104 | 2510 | R = CH3, T Cell Chemotaxis Selectivity (CCR6; Table 14, R = CH3): 104 |
| CCC1([C@@H](Nc2c(Nc3ccnc(C(=O)N(C)C)c3O)c(=O)c2=O)c2nn(C)cc2C)CCC1 (single isomer, unassigned) [Example 35] | 30 | 8 | 255 | – |
| Cc1cn(C)nc1[C@H](Nc1c(Nc2ccnc(C(=O)N(C)C)c2O)c(=O)c1=O)[C@]1(C)CC(F)(F)CO1 (single isomer, unassigned) [Example 36] | 32.3 | 220 | 7130 | – |
| [2H]C([2H])([2H])c1cn(C)nc1[C@H](Nc1c(Nc2ccnc(C(=O)N(C)C)c2O)c(=O)c1=O)C1(C)CCCC1 (single isomer, unassigned) [Example 39] | 6.5 | – | 502 | – |
| Cc1cn(C)nc1[C@H](Nc1c(Nc2ccnc(C(=O)N(C)C)c2O)c(=O)c1=O)C1(C)CCCC1 [Example 1, (R)-4-((2-(((1,4-Dimethyl-1H-pyrazol-3-yl)(1-methylcyclopentyl)methyl)amino)-3,4-dioxocyclobut-1-en-1-yl)amino)-3-hydroxy-N,N-dimethylpicolinamide] | 5.8 | – | 524 | IC50 (CCR6; Table 14, R = CH3, read-out: R = CH3, IC50 (nM) CCR6 T cell, CCL20 Chemotaxis): 5.8 nM; IC50 (CXCR2; Table 14, R = CH3, read-out: R = CH3, IC50 (nM) CXCR2 Neutrophil, GROα Chemotaxis): 524 nM |
| Cc1cn(C)nc1[C@@H](Nc1c(Nc2ccnc(C(=O)N(C)C)c2O)c(=O)c1=O)C1(C)CCCC1 [Example 2, (S)-4-((2-(((1,4-Dimethyl-1H-pyrazol-3-yl)(1-methylcyclopentyl)methyl)amino)-3,4-dioxocyclobut-1-en-1-yl)amino)-3-hydroxy-N,N-dimethylpicolinamide] | 186 | – | 7310 | – |
| Cc1cn(C)nc1[C@H](Nc1c(Nc2ccnc(C(=O)N(C)C(C)C)c2O)c(=O)c1=O)C1(C)CCCC1 [Example 3, (R)-4-((2-(((1,4-Dimethyl-1H-pyrazol-3-yl)(1-methylcyclopentyl)methyl)amino)-3,4-dioxocyclobut-1-en-1-yl)amino)-3-hydroxy-N-isopropyl-N-methylpicolinamide] | 2.3 | 665 | 1530 | – |
| CCN(C)C(=O)c1nccc(Nc2c(N[C@@H](c3nn(C)cc3C)C3(C)CCCC3)c(=O)c2=O)c1O [Example 4, (R)-4-((2-(((1,4-Dimethyl-1H-pyrazol-3-yl)(1-methylcyclopentyl)methyl)amino)-3,4-dioxocyclobut-1-en-1-yl)amino)-N-ethyl-3-hydroxy-N-methylpicolinamide] | 6.3 | 140 | 886 | – |
| CCN(C)C(=O)c1nccc(Nc2c(N[C@H](c3nn(C)cc3C)C3(C)CCCC3)c(=O)c2=O)c1O [Example 5, (S)-4-((2-(((1,4-Dimethyl-1H-pyrazol-3-yl)(1-methylcyclopentyl)methyl)amino)-3,4-dioxocyclobut-1-en-1-yl)amino)-N-ethyl-3-hydroxy-N-methylpicolinamide] | 922 | – | – | – |
| Cc1cn(C)nc1[C@H](Nc1c(Nc2ccnc(C(=O)N3CCOCC3)c2O)c(=O)c1=O)C1(C)CCCC1 [Example 6, (R)-3-(((1,4-dimethyl-1H-pyrazol-3-yl)(1-methylcyclopentyl)methyl)amino)-4-((3-hydroxy-2-(morpholine-4-carbonyl)pyridin-4-yl)amino)cyclobut-3-ene-1,2-dione] | 11.6 | 51 | 586 | – |
| Cc1cn(C)nc1[C@H](Nc1c(Nc2ccnc(C(=O)N3CCN(C)CC3)c2O)c(=O)c1=O)C1(C)CCCC1 [Example 7, (R)-3-(((1,4-Dimethyl-1H-pyrazol-3-yl)(1-methylcyclopentyl)methyl)amino)-4-((3-hydroxy-2-(4-methylpiperazine-1-carbonyl)pyridin-4-yl)amino)cyclobut-3-ene-1,2-dione] | 29.8 | 72 | 2160 | – |
| CN(C)C(=O)c1nccc(Nc2c(N[C@@H](c3nn(C)cc3Cl)C3(C)CCCC3)c(=O)c2=O)c1O [Example 8, (R)-4-((2-(((4-Chloro-1-methyl-1H-pyrazol-3-yl)(1-methylcyclopentyl)methyl)amino)-3,4-dioxocyclobut-1-en-1-yl)amino)-3-hydroxy-N,N-dimethylpicolinamide] | 3 | 34 | 103 | – |
| CN(C)C(=O)c1nccc(Nc2c(N[C@H](c3nn(C)cc3Cl)C3(C)CCCC3)c(=O)c2=O)c1O [Example 9, (S)-4-((2-(((4-Chloro-1-methyl-1H-pyrazol-3-yl)(1-methylcyclopentyl)methyl)amino)-3,4-dioxocyclobut-1-en-1-yl)amino)-3-hydroxy-N,N-dimethylpicolinamide] | 59.7 | 46 | 2750 | – |
| CC(C)N(C)C(=O)c1nccc(Nc2c(N[C@@H](c3nn(C)cc3Cl)C3(C)CCCC3)c(=O)c2=O)c1O [Example 10, (R)-4-((2-(((4-Chloro-1-methyl-1H-pyrazol-3-yl)(1-methylcyclopentyl)methyl)amino)-3,4-dioxocyclobut-1-en-1-yl)amino)-3-hydroxy-N-isopropyl-N-methylpicolinamide] | 8.7 | 20 | 175 | – |
| COc1cn(C)nc1[C@H](Nc1c(Nc2ccnc(C(=O)N(C)C(C)C)c2O)c(=O)c1=O)C1(C)CCCC1 [Example 11, (R)-3-Hydroxy-N-isopropyl-4-((2-(((4-methoxy-1-methyl-1H-pyrazol-3-yl)(1-methyl-cyclopentyl)methyl)amino)-3,4-dioxocyclobut-1-en-1-yl)amino)-N-methylpicolinamide] | 1.9 | 110 | 210 | – |
| COc1cn(C)nc1[C@H](Nc1c(Nc2ccnc(C(=O)N(C)C)c2O)c(=O)c1=O)C1(C)CCCC1 [Example 12, (R)-3-Hydroxy-4-((2-(((4-methoxy-1-methyl-1H-pyrazol-3-yl)(1-methylcyclopentyl)methyl)amino)-3,4-dioxocyclobut-1-en-1-yl)amino)-N,N-dimethylpicolinamide] | 1.7 | 63 | 107 | – |
| Cc1ccc([C@H](Nc2c(Nc3cccc(C(=O)N(C)C)c3O)c(=O)c2=O)C2(C)COC2)o1 [Example 50, reference compound] | – | – | – | IC50 (CXCR2; Table 17, WO 2013/061005 comparator compounds, read-out: IC50 (nM) CXCR2 Neutrophil, GROα Chemotaxis): 121 nM |
| CC[C@@H](Nc1c(Nc2ccnc(C(=O)N(C)C)c2O)c(=O)c1=O)c1cc(C(C)C)co1 [Example 112, reference compound] | – | – | – | IC50 (CXCR2; Table 15, WO 2010/131145 comparator compounds, read-out: IC50 (nM) CXCR2 Neutrophil, GROα Chemotaxis): 23.2 nM |

Source: patent US11708360B2, “N-substituted-dioxocyclobutenylamino-3-hydroxy-picolinamides useful as CCR6 inhibitors” (Pfizer Inc., priority 2018, dated 2023)
